According to patent publication US20220259265A1, “Inhibitors and Use Thereof in Cancer Treatment” (The University of Sydney, priority 2019, published 2022):
Blank lines part the entries; values can stand above or below the molecule they belong to. Ends that are not written are not given here. Peptide text beside a SMILES is read from it. * marks the point of attachment. 5TAMRA = CN(C)c1ccc2c(c1)Oc1cc(N(C)C)ccc1C21OC(=O)c2cc(C(=O)*)ccc21

Legend:
[1] = tested on: DNA end-joining activity in MDA-MB-468 cells; assay: DNA end-joining assay, nuclear extracts of treated MDA-MB-468 cells; assay type: cell-based, human
Method: (§1) Nuclear extraction and end-joining assay was performed as previously described (Andrin C et al., J Blot Chem., 2004, 279, 25017-25023; Andrin C et al., Nucleus., 2012, 3, 384-395) with slight modifications. […] After isolation of nuclei by centrifugation through a buffer containing 300 mM sucrose, the washed nuclear pellet was extracted into high-salt buffer (20 mM Hepes, pH 7.5, 25% glycerol, 420 mM NaCl, 0.2 mM EDTA, 1.5 mM MgCl2) for 30 min on ice, and insoluble material was removed by centrifugation. The soluble nuclear extract was used in the end-joining assay. Restriction enzymes NheI and EcoRI (New England Biolabs, Ipswich, Mass., USA) were used to digest a EGFP-C1 plasmid (Clontech, Mountain View, Calif., USA) to generate a DNA fragment of 4 kb with non-homologous ends. The linearized plasmid was separated by 0.8% agarose gel electrophoresis, purified using a DNA gel extraction kit (Qiagen), and used as the substrate for end-joining assays. Nuclear extract (2 μg) was mixed with end-joining assay buffer (7.5 mM Tris pH 8.0, 0.2 mM CaCl2, 10 mM MgCl2, 50 mM KCl, 1.2 mM ATP and 0.5 mM DTT) and allowed to stand for 30 min at 22° C. Repair was initiated by adding 100 ng of prepared linearized DNA and incubated at 25° C. for 30 min, stopped by the addition of 0.5 M EDTA, 0.5% SDS and 10 mg/mL Proteinase K. DNA bands were separated on a 0.7% agarose gel, stained with SYBR Gold (Life Technologies), and visualized on a BioRad ChemiDoc imaging system.

[2] = tested on: IGFBP-3-NONO complexes in HCC1806 cells; assay: Proximity ligation assay (PLA), HCC1806 cells; assay type: cell-based, human
Method: (§2) PLA was performed using the Duolink Detection Kit (Olink Bioscience Uppsala, Sweden) as previously described (Lin M Z et al., Oncogene, 2014, 33, 85-96). Briefly, cells were grown on 8-mm glass coverslips to 50% confluency, treated, and prepared for microscopy by fixing, permeabilizing and blocking. Coverslips were incubated with primary antibody pairs (raised in different species) targeting the proteins under investigation overnight at 4° C. […]; NONO (as above) and […]; IGFBP-3 (as above), 1:100. This was followed by incubation with PLA probes MINUS and PLUS for 1 h at 37° C., probe ligation for 30 min at 37° C. and amplification over 100 min at 37° C. Interactions were detected as amplified far-red signals using a Leica TCS SP5 confocal microscope (Leica Microsystems, Wetzlar, Germany) and quantitated using Image J software.

[3] = tested on: IGFBP-3-NONO complexes in MDA-MB-468 cells; assay: Proximity ligation assay (PLA), MDA-MB-468 cells; assay type: cell-based, human
Method: as §2

[4] = tested on: DNA end-joining activity in HCC1806 cells; assay: DNA end-joining assay, nuclear extracts of treated HCC1806 cells; assay type: cell-based, human
Method: as §1, with “Repair was initiated by adding 100 ng of prepared linearized DNA and incubated at 25° C. for 30 min, stopped by the addition of 0.5 M EDTA, 0.5% SDS and 10 mg/mL Proteinase K. DNA bands were separated on a 0.7% agarose gel, stained with SYBR Gold (Life Technologies), and visualized on a BioRad ChemiDoc imaging system.” left out

[5] = tested on: γH2AX (DNA double-strand breaks) in MDA-MB-468 cells; assay: γH2AX immunofluorescence, MDA-MB-468 cells; assay type: cell-based, human; settings: olaparib 10 μM or veliparib 20 μM pre-treatment, etoposide 1 h (T0), 4 h recovery (T4)
Method: (§3) The human basal-like triple negative breast cancer (TNBC) cell lines MDA-MB-468 and HCC1806 were obtained from ATCC, Manassas, Va. and maintained in RPMI 1640 medium containing 5% FBS and 10 μg/mL bovine insulin under standard conditions. Cryopreserved stocks were established within 1 month of receipt, and fresh cultures for use in experiments were established from these stocks every 2 to 3 months.
(§4) Cells grown on 8-mm glass coverslips were washed three times with PBS, fixed with 4% paraformaldehyde for 15 min, permeabilized with 0.2% Triton X-100 for 5 min and blocked with 2% BSA for 1 h. Cells were then incubated with rabbit anti-phospho-histone γH2A.X (Ser139) (1:200; Cell Signaling Technology, #9718) overnight at 4° C., washed, and further incubated with anti-rabbit secondary antibody, tagged with Alexa Fluor 594 (Life Technologies, Carlsbad, Calif., USA). For controls, cells were treated with isotype-matched IgG from the same species. Slides were mounted using ProLong Gold Antifade Reagent (Life Technologies). […] Data were calculated from three replicate experiments.

[6] = tested on: γH2AX (DNA double-strand breaks) in HCC1806 cells; assay: γH2AX immunofluorescence, HCC1806 cells; assay type: cell-based, human; settings: olaparib 10 μM or veliparib 20 μM pre-treatment, etoposide 1 h (T0), 4 h recovery (T4)
Method: as §3, §4

[7] = tested on: HCC1806 breast cancer cells; assay: Nuclear uptake of 5-TAMRA-labelled peptide, confocal microscopy (fixed and live cell imaging); assay type: cell-based, human
Method: The peptide was synthesised with the fluorescent dye 5-TAMRA (5-carboxytetramethyl-rhodamine) covalently bound at its amino-terminus. Since under some circumstances the fixation of cells prior to imaging may introduce artefacts, experiments were performed to detect the localisation of the peptide both with and without fixation of the cells. […] At the indicated time points, cells were washed three times with PBS, fixed with 4% paraformaldehyde for 15 min, washed three times and mounted on slides using ProLong Gold Antifade Reagent containing the nuclear stain DAPI (Life Technologies). Confocal fluorescence images were captured with a Leica TCS SP5 confocal laser scanning microscope (Leica Microsystems, Wetzlar, Germany). Live cell imaging (FIG. 8b): HCC1806 cells were plated in an 8-well chamber slide (Nunc Lab-Tek, Sigma Aldrich); 0.1 mg/mL Hoechst nuclear stain (Life Technologies) was added to the cells for 15 mins and imaged (0 min time point) using Leica TCS SP5 confocal microscope. […] Images were taken at the times indicated.

[8] = biological target: T1, IGFBP-3 complexes with NONO (NONO/SFPQ) in MDA-MB-468 cells (Homo sapiens, UniProt Q15233); assay: Co-immunoprecipitation with IGFBP-3-Fab beads and western blotting, MDA-MB-468 cells; assay type: cell-based; settings: 24 h preincubation with veliparib 20 μM or olaparib 10 μM prior to 20 μM etoposide
T1 construct: endogenous in cells; host or cells: MDA-MB-468; HCC1806
T1 sequence (Q15233 1-471): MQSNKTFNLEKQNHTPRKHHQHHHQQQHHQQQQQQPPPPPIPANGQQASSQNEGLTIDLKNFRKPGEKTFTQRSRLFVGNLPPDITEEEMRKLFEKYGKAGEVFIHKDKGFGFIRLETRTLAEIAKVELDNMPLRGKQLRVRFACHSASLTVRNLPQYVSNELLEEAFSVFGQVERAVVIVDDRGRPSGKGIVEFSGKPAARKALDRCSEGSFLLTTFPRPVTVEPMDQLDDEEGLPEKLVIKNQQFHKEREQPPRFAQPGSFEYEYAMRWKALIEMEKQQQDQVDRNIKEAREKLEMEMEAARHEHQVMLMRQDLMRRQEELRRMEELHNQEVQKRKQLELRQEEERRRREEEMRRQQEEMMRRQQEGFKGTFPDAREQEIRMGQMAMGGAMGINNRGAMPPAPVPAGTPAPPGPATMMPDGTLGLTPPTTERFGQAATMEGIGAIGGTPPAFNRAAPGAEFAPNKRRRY
T1 sequence (P23246 1-707 partner): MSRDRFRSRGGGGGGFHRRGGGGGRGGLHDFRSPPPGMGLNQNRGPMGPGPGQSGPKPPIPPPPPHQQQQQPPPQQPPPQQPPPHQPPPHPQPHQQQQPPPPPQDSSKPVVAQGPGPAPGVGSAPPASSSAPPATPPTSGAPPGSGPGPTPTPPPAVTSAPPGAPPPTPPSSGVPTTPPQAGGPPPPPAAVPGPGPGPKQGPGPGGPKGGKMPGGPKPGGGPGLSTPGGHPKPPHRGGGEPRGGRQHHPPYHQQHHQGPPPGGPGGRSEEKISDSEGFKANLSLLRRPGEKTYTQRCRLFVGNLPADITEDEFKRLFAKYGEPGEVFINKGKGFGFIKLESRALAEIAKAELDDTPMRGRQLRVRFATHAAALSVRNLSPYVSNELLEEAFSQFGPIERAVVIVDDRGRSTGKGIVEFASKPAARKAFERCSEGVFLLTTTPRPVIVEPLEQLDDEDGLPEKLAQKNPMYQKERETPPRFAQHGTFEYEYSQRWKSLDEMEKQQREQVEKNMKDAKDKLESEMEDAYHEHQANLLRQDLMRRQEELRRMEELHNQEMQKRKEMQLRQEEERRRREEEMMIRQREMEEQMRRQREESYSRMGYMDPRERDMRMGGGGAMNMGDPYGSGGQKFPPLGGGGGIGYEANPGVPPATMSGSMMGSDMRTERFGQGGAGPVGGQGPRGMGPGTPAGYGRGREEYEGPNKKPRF
Method: as §3

[9] = tested on: HCC1806 breast cancer cells; assay: 14-day colony formation or clonogenic survival assay; assay type: cell-based, human; settings: veliparib 5 μM
Method: HCC1806 cells (500 cells/well) were plated in 6-well plates for 24 h prior to being treated with or without 5 μM of PARPi (veliparib) for a further 24 h. […] Colonies were washed with PBS and stained using 0.5% Crystal Violet (Sigma Aldrich) in 20% methanol for 30 min prior to rinsing with water. Colonies, defined as clusters of at least 30 cells, were imaged and counted with an AID vSpot Spectrum imager (AutoImmun Diagnostika GmbH, Strassberg, Germany).
The 14-day colony formation or clonogenic survival assay measures the ability of cells to survive 2 days of chemotherapy-induced DNA damage, and form colonies of at least 30 cells over the next 12 days. […] The purpose was to find conditions under which the cells become more sensitive to this low dose of chemotherapy.

[10] = tested on: γH2AX signal in MDA-MB-468 cells; assay: γH2AX response to etoposide after peptide incubation (blot), MDA-MB-468 cells; assay type: cell-based, human; settings: 16 h incubation with peptide at 10 μM, 25 μM etoposide
Method: (§5) An elevated γH2AX signal is indicative of sustained DNA damage (i.e. inhibition of DNA repair) compared to the control cells. Peptide #66 was also evaluated in the presence of PARP inhibitors, veliparib (ABT-888) and olaparib (Lynparza). In FIG. 5e and FIG. 5f, the γH2AX signal in the absence of peptide #66 is expressed as 100%, and bars represent the ratio of γH2AX signal in the presence of the peptide, to that in its absence.

[11] = tested on: γH2AX signal in HCC1806 cells; assay: γH2AX response to etoposide after peptide incubation (blot), HCC1806 cells; assay type: cell-based, human; settings: 16 h incubation with peptide at 10 μM, 25 μM etoposide
Method: as §5

[12] = 20 μM veliparib or 10 μM olaparib 24 h, then 20 μM etoposide 2 h
[13] = 24 h preincubation with 20 μM veliparib, 2 h after 20 μM etoposide

Molecule: COc1cc([C@@H]2c3cc4c(cc3[C@@H](O[C@@H]3O[C@@H]5CO[C@@H](C)O[C@H]5[C@H](O)[C@H]3O)[C@H]3COC(=O)[C@H]23)OCO4)cc(OC)c1O [etoposide]
- Activity in direct DNA end-joining assay ([1]; 20 μM etoposide 2 h, nuclear extracts (FIG. 4e)): increased activity
- Time of peak interaction between IGFBP-3 and NONO (PLA) ([2]; 20 μM etoposide, 0 to 4 h): ~2 h
- Time of peak interaction between IGFBP-3 and NONO (PLA) ([3]; 20 μM etoposide, 0 to 4 h): ~2 h

Molecule: O=C(c1cc(Cc2n[nH]c(=O)c3ccccc23)ccc1F)N1CCN(C(=O)C2CC2)CC1 [olaparib]
- Inhibition of end joining activity [1, 12]: approximately 50%
- Inhibition of end joining activity [4, 12]: approximately 50%
- Effect on loss of γH2AX signal over 4 h recovery (DSB repair) [5]: significantly prevented the loss of γH2AX signal
- Effect on loss of γH2AX signal over 4 h recovery (DSB repair) [6]: significantly prevented the loss of γH2AX signal

Molecule: CC(C)C[C@H](NC(=O)[C@H](Cc1c[nH]cn1)NC(=O)c1ccc2c(c1)C(=O)OC21c2ccc(N(C)C)cc2Oc2cc(N(C)C)ccc21)C(=O)N[C@@H](CCCCN)C(=O)N[C@@H](Cc1ccccc1)C(=O)N[C@@H](CC(C)C)C(=O)N[C@@H](CC(N)=O)C(=O)N[C@H](C(=O)N[C@@H](CC(C)C)C(=O)N[C@@H](CO)C(=O)N1CCC[C@H]1C(=O)N[C@@H](CCCNC(=N)N)C(=O)NCC(=O)O)C(C)C [peptide #66 labelled with 5-TAMRA] (5TAMRA-HLKFLNVLSPRG-OH)
- Time of peak colocalization of labelled peptide and nuclei ([7]; fixed cell imaging, or 10 μM labelled peptide): 30 min
- Association of labelled peptide with cell nuclei ([7]; live cell imaging, 2.5 μM or 10 μM labelled peptide): associated with cell nuclei at 40 and 60 min, and even more so after 90 min

- Effect on IGFBP-3 complexes with NONO (immunoblotting after coIP) [8]: abolished
Molecule: C[C@]1(c2nc3c(C(N)=O)cccc3[nH]2)CCCN1 [veliparib]
- inhibition at 20 µM ([1]; Homo sapiens, MDA-MB-468): ~50%
- inhibition at 20 µM ([4]; Homo sapiens, HCC1806): ~50%
- Effect on increase in IGFBP-3-NONO complexes (PLA) [2, 13]: abolished
- Inhibition of cell survival (colony formation) ([9]; cells exposed to 100 nM etoposide): about one-third
- Inhibition of cell survival (colony formation) ([9]; in the absence of etoposide): about one-third
- Effect on increase in IGFBP-3-NONO complexes (PLA) [3, 13]: abolished
- Effect on loss of γH2AX signal over 4 h recovery (DSB repair) [5]: significantly prevented the loss of γH2AX signal
- Effect on loss of γH2AX signal over 4 h recovery (DSB repair) [6]: significantly prevented the loss of γH2AX signal

- Nuclear uptake of peptide ([7]; 5-TAMRA-labelled peptide, fixed and live cell imaging): rapid nuclear uptake
Molecule: HLKFLNVLSPRG [Peptide #66]

Molecule: MEDTLNHLKFLN [compound 64]
- γH2AX signal (sustained DNA damage) compared to no peptide [10]: low γH2AX signal
- γH2AX signal (sustained DNA damage) compared to no peptide [11]: low γH2AX signal

Molecule: TLNHLKFLNVLS [compound 65]
- γH2AX signal (sustained DNA damage) compared to no peptide [10]: sustained γH2AX signal
- γH2AX signal (sustained DNA damage) compared to no peptide [11]: sustained γH2AX signal
